# Results published in PubChem BioAssay AID623873 (Sanford-Burnham Center for Chemical Genomics, 2012).
# Activity calls are given as the source filed them.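 How the source made its calls: active means IC50 at or below 20 µM in the dose response; inactive means the rest.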
# Test system: HL-1 cardiomyocytes, 2-deoxyglucose injury, ATP luminescence, 2 h
# Assay: protection of HL-1 cells from ATP loss, SAR follow-up, 2-deoxyglucose, ATP luminescence (AID 623873)
row,SMILES,IC50
1,CCCn1c(SC(C(=O)Nc2cccc(OC)c2)c2ccccc2)nc2ccccc2c1=O (configuration not stated),> 79 µM (inactive)
2,COc1ccc(NC(=O)CN(C)C(=O)c2cc(-c3cccs3)nn2-c2ccccc2)cc1,> 79 µM (inactive)
3,COCCNC(=O)C(c1ccc(O)cc1)N(C(=O)c1snc(C(N)=O)c1N)c1ccccc1F (configuration not stated),> 79 µM (inactive)
4,NC(=O)c1nsc(C(=O)N(c2cccc(F)c2)C(C(=O)NC2CCCC2)c2ccc(O)cc2)c1N (configuration not stated),> 79 µM (inactive)
5,COc1ccc(-c2cc(C(=O)NCc3ccccc3)c3ccccc3n2)cc1OC,> 79 µM (inactive)
6,COc1ccc(-c2cc(C(=O)N(C)C)c3ccccc3n2)cc1OC,71.9 µM (inactive)
7,COCCn1c(SC(C(=O)Nc2cc(C)ccc2C)c2ccccc2)nc2ccccc2c1=O (configuration not stated),> 79 µM (inactive)
8,Cc1ccc(-c2[nH]c3ccccc3c2C(=O)C(=O)N(C)C)cc1,> 79 µM (inactive)
9,COc1ccc2cc(C(=O)N3CCN(S(=O)(=O)c4cc(C)ccc4C)CC3)c(C)nc2c1,> 79 µM (inactive)
10,COc1ccc(-n2cc(-c3ccccc3)c3c(N4CCCC4)ncnc32)cc1,> 79 µM (inactive)
11,COc1ccc2c(=O)c(C(=O)N3CCN(S(=O)(=O)c4c(C)cc(C)cc4C)CC3)c[nH]c2c1,> 79 µM (inactive)
12,O=C(C(=O)N1CCCCC1)c1c(-c2ccccc2)[nH]c2ccccc12,> 79 µM (inactive)
13,Cc1ccc(NC(=O)CN(C)C(=O)c2cc(-c3cccs3)nn2-c2ccccc2)cc1,> 79 µM (inactive)
14,COc1ccc(-n2cc(-c3ccccc3)c3c(NCc4ccccc4)ncnc32)cc1,> 79 µM (inactive)
15,O=C1c2ccccc2N2C(=O)c3ccccc3[C@H]2N1c1ccccc1,> 79 µM (inactive)
16,COc1ccccc1N1C(=O)c2ccccc2N2C(=O)c3c(ccc(OC)c3OC)C12 (configuration not stated),29.4 µM (inactive)
17,O=C(C(=O)N1CCCC1)c1c(-c2ccccc2)[nH]c2ccccc12,> 79 µM (inactive)
18,CCN(CC)S(=O)(=O)c1cc(C(=O)N2CCN(Cc3cccc4cccnc34)CC2)ccc1C,> 79 µM (inactive)
19,Cc1ccc(S(=O)(=O)N2CCN(C(=O)c3cc(=O)[nH]c4ccccc34)CC2)cc1C,> 79 µM (inactive)
20,COc1cccc(NC(=O)C(Sc2nc3ccccc3c(=O)n2CC(C)C)c2ccccc2)c1 (configuration not stated),> 79 µM (inactive)
21,COc1cccc(CN(C)C(=O)c2cc(-c3ccccc3)nc3ccc(C)cc23)c1OC,> 79 µM (inactive)

row,SMILES,IC50
1,COc1cc(-c2cc(C(=O)Nc3cccc(C(C)=O)c3)c3ccccc3n2)cc(OC)c1OC,1.76 µM
2,Cc1ccc(S(=O)(=O)N(Cc2cccnc2)Cc2cc3ccccc3[nH]c2=O)cc1,> 79 µM (inactive)
3,COc1ccc(N2C(=O)c3ccccc3N3C(=O)c4c(ccc(OC)c4OC)C23)cc1 (configuration not stated),1.47 µM
4,NC(=O)c1nsc(C(=O)N(Cc2ccccc2)C(C(=O)NCc2ccc(F)cc2)c2ccc(O)cc2)c1N (configuration not stated),> 79 µM (inactive)
5,COc1ccc2c(c1OC)C(=O)N1c3ccccc3C(=O)N(c3ccccc3C)C21 (configuration not stated),11.7 µM (inactive)
6,O=c1[nH]c2ccccc2cc1CN(Cc1ccco1)S(=O)(=O)c1ccc(F)cc1,> 79 µM (inactive)
7,COc1cccc(NC(=O)CN(C)C(=O)c2cc(-c3cccs3)nn2-c2ccccc2)c1,> 79 µM (inactive)
8,Cc1ccc2cc(CN(C)S(=O)(=O)c3ccc(F)cc3)c(=O)[nH]c2c1,> 79 µM (inactive)
9,Cc1ccc(C)c(S(=O)(=O)N2CCN(C(=O)c3cc4cc(C)ccc4nc3C)CC2)c1,> 79 µM (inactive)
10,COc1ccc(S(=O)(=O)N(Cc2cccnc2)Cc2cc3ccccc3[nH]c2=O)cc1,> 79 µM (inactive)
11,COc1cccc(CN(C)C(=O)c2cc(-c3ccc(OC)c(OC)c3)nc3ccccc23)c1,5.52 µM
12,CCN(CC)C(=O)C(=O)c1c(-c2ccccc2)[nH]c2ccccc12,> 79 µM (inactive)
13,COc1ccc2c(c1OC)C(=O)N1c3ccccc3C(=O)N(c3cccc(Br)c3)C21 (configuration not stated),0.684 µM
14,COc1ccc(-n2cc(-c3ccccc3)c3c(N4CCCCC4)ncnc32)cc1,> 79 µM (inactive)
15,COc1ccc2c(c1OC)C(=O)N1c3ccccc3C(=O)N(c3ccc(F)cc3)C21 (configuration not stated),3.4 µM
16,CCN(CC(=O)Nc1ccc(OC)cc1)C(=O)c1cc(-c2cccs2)nn1-c1ccccc1,2.27 µM
17,COc1ccc(-c2cc(C(=O)NCc3ccco3)c3ccccc3n2)cc1OC,20.8 µM (inactive)
18,CCCN(CC(=O)Nc1ccccc1OC)C(=O)c1cc(-c2cccs2)nn1-c1ccccc1,> 79 µM (inactive)
19,Cc1ccccc1N(C(=O)c1snc(C(N)=O)c1N)C(C(=O)NCc1ccc(F)cc1)c1ccc(O)cc1 (configuration not stated),> 79 µM (inactive)
20,COc1ccc(-c2cc(C(=O)N(C)Cc3ccc(OC)c(OC)c3OC)c3ccccc3n2)cc1OC,2.9 µM
21,COc1ccc2cc(C(=O)N3CCN(S(=O)(=O)c4ccc(C)cc4C)CC3)c(C)nc2c1,> 79 µM (inactive)
